Measured values published in PubChem BioAssay AID248 (DTP/NCI, 2004).
Several values for one entry are separate records, joined by “and”; a condition that tells them apart may be missing. Equal entries are not always repeated. Inconclusive results and toxic doses are left out. Cut-off read from the data, not from the text of the source: active = T/C of 150% or more; inactive = T/C below 125%.

System: L1210 leukemia ip in BDF1 mice, survival T/C
Test: NCI In Vivo Anticancer Drug Screen. Data for tumor model L1210 Leukemia (intraperitoneal) in B6D2F1 (BDF1) mice
Conditions: higher = longer survival
Summary of the method: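 Tumor cells were implanted, animals were treated, and survival was followed. The result divides the treated measurement by the vehicle-control measurement.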

[1] = endpoint: mean survival time, dose: 100.0 mg/kg/injection, schedule: Q01DX009 (ip), vehicle: saline with Tween-80
[2] = endpoint: mean survival time, dose: 200.0 mg/kg/injection, schedule: Q01DX009 (ip), vehicle: saline with Tween-80
[3] = endpoint: mean survival time, dose: 400.0 mg/kg/injection, schedule: Q01DX009 (ip), vehicle: saline with Tween-80
[4] = endpoint: mean survival time, dose: 100.0 mg/kg/injection, schedule: Q01DX001 (ip), vehicle: carboxymethylcellulose (CMC)
[5] = endpoint: mean survival time, dose: 200.0 mg/kg/injection, schedule: Q01DX001 (ip), vehicle: carboxymethylcellulose (CMC)
[6] = endpoint: mean survival time, dose: 400.0 mg/kg/injection, schedule: Q01DX001 (ip), vehicle: carboxymethylcellulose (CMC)
[7] = endpoint: mean survival time, dose: 100.0 mg/kg/injection, schedule: Q01DX001 (ip), vehicle: saline
[8] = endpoint: mean survival time, dose: 200.0 mg/kg/injection, schedule: Q01DX001 (ip), vehicle: saline
[9] = endpoint: mean survival time, dose: 400.0 mg/kg/injection, schedule: Q01DX001 (ip), vehicle: saline

Measured: T/C

CC1=C(/C=C/C(C)=C/C=C/C(C)=C/C(=O)O)C(C)(C)CCC1
inactive: endpoint: mean survival time, dose: 88.0 mg/kg/injection, schedule: Q01DX009 (ip), vehicle: steriod suspending solution 89 % of control | [1] 100 % of control | endpoint: mean survival time, dose: 200.0 mg/kg/injection, schedule: Q01DX001 (sc), vehicle: steriod suspending solution 104 % of control | [2] 94 % of control | endpoint: mean survival time, dose: 400.0 mg/kg/injection, schedule: Q01DX001 (sc), vehicle: steriod suspending solution 98 % of control | [3] 91 % of control | endpoint: median survival time, dose: 25.0 mg/kg/injection, schedule: Q01DX009 (ip), vehicle: other 111 % of control | endpoint: median survival time, dose: 50.0 mg/kg/injection, schedule: Q01DX009 (ip), vehicle: other 100 % of control | endpoint: median survival time, dose: 100.0 mg/kg/injection, schedule: Q01DX009 (ip), vehicle: other 100 % of control | endpoint: median survival time, dose: 200.0 mg/kg/injection, schedule: Q01DX009 (ip), vehicle: other 100 % of control

Clc1ccc([I+]c2ccc(Cl)c(Cl)c2)cc1Cl
inactive: endpoint: mean survival time, dose: 4.0 mg/kg/injection, schedule: Q01DX015 (ip), vehicle: carboxymethylcellulose (CMC) 98 % of control | endpoint: mean survival time, dose: 8.0 mg/kg/injection, schedule: Q01DX015 (ip), vehicle: carboxymethylcellulose (CMC) 96 % of control | endpoint: mean survival time, dose: 16.0 mg/kg/injection, schedule: Q01DX015 (ip), vehicle: carboxymethylcellulose (CMC) 87 % of control | endpoint: mean survival time, dose: 32.0 mg/kg/injection, schedule: Q01DX015 (ip), vehicle: carboxymethylcellulose (CMC) 96 % of control | [4] 95 % of control | [5] 106 % of control | [6] 111 % of control

ClC(Cl)(Cl)c1ccc(C2OCCO2)cc1
inactive: endpoint: mean survival time, dose: 177.0 mg/kg/injection, schedule: Q01DX001 (ip), vehicle: other 98 % of control | endpoint: mean survival time, dose: 266.0 mg/kg/injection, schedule: Q01DX001 (ip), vehicle: other 110 % of control | endpoint: mean survival time, dose: 400.0 mg/kg/injection, schedule: Q01DX001 (ip), vehicle: other 94 % of control | endpoint: mean survival time, dose: 600.0 mg/kg/injection, schedule: Q01DX001 (ip), vehicle: other 111 % of control

O=C(Nc1ccc(Cl)c([N+](=O)[O-])c1)Oc1ccc2ccccc2c1
inactive: endpoint: mean survival time, dose: 100.0 mg/kg/injection, schedule: Q01DX009 (ip), vehicle: other 92 % of control | endpoint: mean survival time, dose: 200.0 mg/kg/injection, schedule: Q01DX009 (ip), vehicle: other 97 % of control | endpoint: mean survival time, dose: 400.0 mg/kg/injection, schedule: Q01DX009 (ip), vehicle: other 107 % of control

O=c1c2cccc3cccc(c32)c2nc3ccccc3n12
inactive: endpoint: mean survival time, dose: 6.25 mg/kg/injection, schedule: Q01DX009 (ip), vehicle: saline with Tween-80 120 % of control | endpoint: mean survival time, dose: 12.5 mg/kg/injection, schedule: Q01DX009 (ip), vehicle: saline with Tween-80 116 % of control | endpoint: mean survival time, dose: 25.0 mg/kg/injection, schedule: Q01DX009 (ip), vehicle: saline with Tween-80 100 % of control | endpoint: mean survival time, dose: 100.0 mg/kg/injection, schedule: Q04DX003 (ip), vehicle: saline with Tween-80 104 % of control | endpoint: mean survival time, dose: 200.0 mg/kg/injection, schedule: Q04DX003 (ip), vehicle: saline with Tween-80 103 % of control

ClC/C=C/C[P+](c1ccccc1)(c1ccccc1)c1ccccc1
inactive: endpoint: mean survival time, dose: 1.56 mg/kg/injection, schedule: Q01DX009 (ip), vehicle: saline 89 % of control | endpoint: mean survival time, dose: 3.12 mg/kg/injection, schedule: Q01DX009 (ip), vehicle: saline 99 % of control | endpoint: mean survival time, dose: 6.25 mg/kg/injection, schedule: Q01DX009 (ip), vehicle: saline 95 % of control

O=C(Nc1cccc([N+](=O)[O-])c1)Nc1ccccc1Cl
inactive: endpoint: mean survival time, dose: 100.0 mg/kg/injection, schedule: Q04DX002 (ip), vehicle: saline + alcohol 88 % of control | endpoint: mean survival time, dose: 200.0 mg/kg/injection, schedule: Q04DX002 (ip), vehicle: saline + alcohol 88 % of control | endpoint: mean survival time, dose: 400.0 mg/kg/injection, schedule: Q04DX002 (ip), vehicle: saline + alcohol 88 % of control

Cc1cccc2c1C(=S)NC2=O
inactive: endpoint: mean survival time, dose: 100.0 mg/kg/injection, schedule: Q04DX002 (ip), vehicle: saline with Tween-80 103 % of control | endpoint: mean survival time, dose: 200.0 mg/kg/injection, schedule: Q04DX002 (ip), vehicle: saline with Tween-80 100 % of control | endpoint: mean survival time, dose: 400.0 mg/kg/injection, schedule: Q04DX002 (ip), vehicle: saline with Tween-80 89 % of control

CCn1c(O)c(C=N)c(=O)n(CC)c1=O
inactive: endpoint: mean survival time, dose: 100.0 mg/kg/injection, schedule: Q01DX009 (ip), vehicle: saline 95 % of control | endpoint: mean survival time, dose: 100.0 mg/kg/injection, schedule: Q04DX003 (ip), vehicle: saline 106 % of control | endpoint: mean survival time, dose: 200.0 mg/kg/injection, schedule: Q04DX003 (ip), vehicle: saline 93 % of control | endpoint: mean survival time, dose: 400.0 mg/kg/injection, schedule: Q04DX003 (ip), vehicle: saline 113 % of control

Cc1cccc(NC(=O)CSc2ccc(Cl)cc2)c1
inactive: endpoint: mean survival time, dose: 100.0 mg/kg/injection, schedule: Q04DX002 (sc), vehicle: olive oil, sesame oil, peanut oil 100 % of control | endpoint: mean survival time, dose: 200.0 mg/kg/injection, schedule: Q04DX002 (sc), vehicle: olive oil, sesame oil, peanut oil 106 % of control | endpoint: mean survival time, dose: 400.0 mg/kg/injection, schedule: Q04DX002 (sc), vehicle: olive oil, sesame oil, peanut oil 89 % of control

CC(CC(=O)c1ccc(F)cc1)N1CCN(c2ccccc2)CC1 (stereo not given)
inactive: [4] 103 % of control | [5] 90 % of control | [6] 90 % of control

COc1cc([N+](=O)[O-])c2nc(C)ccc2c1[N+](=O)[O-]
inactive: endpoint: mean survival time, dose: 50.0 mg/kg/injection, schedule: Q01DX001 (ip), vehicle: carboxymethylcellulose (CMC) 100 % of control | [4] 100 % of control | [5] 100 % of control | [6] 100 % of control

[O-][n+]1ccccc1CCSCCc1cccc[n+]1[O-]
inactive: [7] 101 % of control | [8] 88 % of control | [9] 97 % of control

CCC(Nc1ccccc1)Nc1ccccc1
inactive: endpoint: mean survival time, dose: 100.0 mg/kg/injection, schedule: Q04DX003 (ip), vehicle: acetone 112 % of control | endpoint: mean survival time, dose: 200.0 mg/kg/injection, schedule: Q04DX003 (ip), vehicle: acetone 87 % of control | endpoint: mean survival time, dose: 400.0 mg/kg/injection, schedule: Q04DX003 (ip), vehicle: acetone 94 % of control

Cc1cc(=O)[nH]c2ccc(-c3ccc4[nH]c(=O)cc(C)c4c3)cc12
inactive: endpoint: mean survival time, dose: 100.0 mg/kg/injection, schedule: Q01DX009 (ip), vehicle: Klucel (hydroxypropylcellulose) (HPC) 101 % of control | endpoint: mean survival time, dose: 100.0 mg/kg/injection, schedule: Q04DX003 (ip), vehicle: Klucel (hydroxypropylcellulose) (HPC) 102 % of control | endpoint: mean survival time, dose: 200.0 mg/kg/injection, schedule: Q01DX009 (ip), vehicle: Klucel (hydroxypropylcellulose) (HPC) 95 % of control | endpoint: mean survival time, dose: 200.0 mg/kg/injection, schedule: Q04DX003 (ip), vehicle: Klucel (hydroxypropylcellulose) (HPC) 100 % of control | endpoint: mean survival time, dose: 400.0 mg/kg/injection, schedule: Q01DX009 (ip), vehicle: Klucel (hydroxypropylcellulose) (HPC) 95 % of control | endpoint: mean survival time, dose: 400.0 mg/kg/injection, schedule: Q04DX003 (ip), vehicle: Klucel (hydroxypropylcellulose) (HPC) 100 % of control

O=c1[nH]c2c(cnn2-c2ccccc2)c(=O)n1OS(=O)(=O)c1ccccc1
inactive: endpoint: mean survival time, dose: 50.0 mg/kg/injection, schedule: Q01DX001 (ip), vehicle: saline 103 % of control | [7] 103 % of control | [8] 100 % of control | [9] 97 % of control

CCOC(=O)C1(NC(=O)N(CCCl)N=O)CCCC1
active: endpoint: mean survival time, dose: 108.0 mg/kg/injection, schedule: Q01DX001 (ip), vehicle: other 178 % of control | endpoint: mean survival time, dose: 110.0 mg/kg/injection, schedule: Q01DX001 (ip), vehicle: other 185 % of control | endpoint: mean survival time, dose: 125.0 mg/kg/injection, schedule: Q01DX001 (ip), vehicle: other 217 % of control | endpoint: mean survival time, dose: 165.0 mg/kg/injection, schedule: Q01DX001 (ip), vehicle: other 236 % of control | endpoint: mean survival time, dose: 168.0 mg/kg/injection, schedule: Q01DX001 (ip), vehicle: other 262 % of control | endpoint: mean survival time, dose: 247.0 mg/kg/injection, schedule: Q01DX001 (ip), vehicle: other 272 % of control | endpoint: mean survival time, dose: 250.0 mg/kg/injection, schedule: Q01DX001 (ip), vehicle: other 278 % of control and 314 % of control | endpoint: mean survival time, dose: 370.0 mg/kg/injection, schedule: Q01DX001 (ip), vehicle: other 250 % of control
inactive: endpoint: mean survival time, dose: 16.0 mg/kg/injection, schedule: Q01DX001 (ip), vehicle: other 105 % of control | endpoint: mean survival time, dose: 31.0 mg/kg/injection, schedule: Q01DX001 (ip), vehicle: other 110 % of control | endpoint: mean survival time, dose: 375.0 mg/kg/injection, schedule: Q01DX001 (ip), vehicle: other 115 % of control | endpoint: mean survival time, dose: 555.0 mg/kg/injection, schedule: Q01DX001 (ip), vehicle: other 94 % of control

Cn1c(=O)cc(C=Nc2ccc(O)cc2)c2ccccc21
inactive: [7] 94 % of control | [8] 98 % of control

CC(CO)(CO)NC(=O)Nc1ccccc1F
inactive: [1] 113 % of control | [2] 103 % of control | [3] 101 % of control
